In ChEMBL document CHEMBL3046351, “Insecticidal, antifeedant and antifungal activities of two glucosides isolated from the seeds of Simmondsia chinensis” (Ind Crops Prod, 2007):
In brackets after ≈: the same amount, converted by molar mass.

How the values were obtained:
Spodoptera littoralis [1] = test: Antifeedant activity against third instar larvae of Spodoptera littoralis fed on compound-treated cotton leaf disks assessed as antifeedant index at 100 ug/ml measured after 24 hr by no-choice leaf disc method; type: functional
Spodoptera littoralis [2] = test: Antifeedant activity against third instar larvae of Spodoptera littoralis fed on compound-treated cotton leaf disks assessed as antifeedant index at 50 ug/ml measured after 24 hr by no-choice leaf disc method; type: functional
Spodoptera littoralis [3] = test: Antifeedant activity against third instar larvae of Spodoptera littoralis fed on compound-treated cotton leaf disks assessed as antifeedant index at 10 ug/ml measured after 24 hr by no-choice leaf disc method; type: functional
Spodoptera littoralis [4] = test: Insecticidal activity against third instar larvae of topically treated Spodoptera littoralis assessed per larva after 24 hr; type: functional
Fusarium oxysporum = test: Antifungal activity against Fusarium oxysporum by radial growth inhibition method; type: functional, organism-based
[5] = test system: Globisporangium debaryanum; test: Antifungal activity against Pythium debaryanum by radial growth inhibition method; type: functional, organism-based
Botrytis fabae = test: Antifungal activity against Botrytis fabae by radial growth inhibition method; type: functional, organism-based
Rhizoctonia solani [6] = test: Antifungal activity against Rhizoctonia solani by radial growth inhibition method; type: functional, organism-based
Spodoptera littoralis [7] = test: Antifeedant activity against third instar larvae of Spodoptera littoralis fed on compound-treated castor bean leaf disks measured after 24 hr by no-choice leaf disc method
Spodoptera littoralis [8] = test: Antifeedant activity against third instar larvae of Spodoptera littoralis fed on compound-treated castor bean leaf disks assessed as antifeedant index at 500 ug/ml measured after 24 hr by no-choice leaf disc method
Spodoptera littoralis [9] = test: Antifeedant activity against third instar larvae of Spodoptera littoralis fed on compound-treated castor bean leaf disks assessed as antifeedant index at 1000 ug/ml measured after 24 hr by no-choice leaf disc method
Rhizoctonia solani [10] = test: Antifungal activity against Rhizoctonia solani; type: functional, organism-based

SMILES	LD50 (Spodoptera littoralis [4])	EC50 (Fusarium oxysporum)	EC50 [5]	EC50 (Botrytis fabae)	EC50 (Rhizoctonia solani [6])	EC50 (Rhizoctonia solani [10])	other results
CO[C@H]1[C@@H](OC)C[C@@H](O[C@H]2O[C@@H](CO)[C@H](O)[C@@H](O)[C@@H]2O)/C(=C\C#N)[C@@H]1O [SIMMONDSIN]	1.49 µg	223 µg/mL (≈ 595 µM)	147 µg/mL (≈ 391 µM)	116 µg/mL (≈ 310 µM)	129 µg/mL (≈ 344 µM)	–	AFI (Spodoptera littoralis [1]): 63.4%; AFI (Spodoptera littoralis [2]): 46.2%; AFI (Spodoptera littoralis [3]): 38.1%; Activity (Spodoptera littoralis [7]): Dose-dependent effect; AFI (Spodoptera littoralis [8]): 78.9%; AFI (Spodoptera littoralis [9]): 92.1%
COP(=S)(OC)Oc1c(Cl)cc(C)cc1Cl [TOLCOFOS-METHYL]	–	51.3 µg/mL (≈ 170 µM)	8.9 µg/mL (≈ 29.6 µM)	21.9 µg/mL (≈ 72.7 µM)	5.7 µg/mL (≈ 18.9 µM)	–	–
CC1(C)C2CCC1(C)C(O)C2 (stereo not drawn) [BORNEOL]	–	–	–	–	–	447 µg/mL (≈ 2900 µM)	–
C=C(C)C1CC=C(C)[C@@H](O)C1 (stereo partly drawn) [CARVEOL]	–	–	–	–	–	92 µg/mL (≈ 604 µM)	–
CC12CCC(CC1=O)C2(C)C (stereo not drawn) [CAMPHOR]	–	–	–	–	–	488 µg/mL (≈ 3210 µM)	–
CCOP(=S)(OCC)Oc1nc(Cl)c(Cl)cc1Cl [CHLORPYRIFOS]	0.12 µg	–	–	–	–	–	–
Cc1ccc(C(C)C)c(O)c1 [THYMOL]	–	–	–	–	–	4 µg/mL (≈ 26.6 µM)	–
COc1cc(/C=C\C(=O)O[C@@H]2[C@@H](O[C@@H]3C[C@H](OC)[C@H](OC)[C@@H](O)/C3=C/C#N)O[C@@H](CO)[C@H](O)[C@H]2O)ccc1O [SIMMONDSIN 2'-FERULATE]	2.58 µg	293 µg/mL (≈ 532 µM)	154 µg/mL (≈ 279 µM)	146 µg/mL (≈ 265 µM)	146 µg/mL (≈ 265 µM)	–	AFI (Spodoptera littoralis [1]): 60.9%; AFI (Spodoptera littoralis [2]): 44.2%; AFI (Spodoptera littoralis [3]): 32.3%; Activity (Spodoptera littoralis [7]): Dose-dependent effect; AFI (Spodoptera littoralis [8]): 76.9%; AFI (Spodoptera littoralis [9]): 90%
O=C/C=C/c1ccccc1 [CINNAMALDEHYDE]	–	–	–	–	–	169 µg/mL (≈ 1280 µM)	–
Cc1ccc(C(C)C)cc1O [CARVACROL]	–	–	–	–	–	41 µg/mL (≈ 273 µM)	–
